Measured values taken from US20100234243A1, “PTU COMPOUNDS FOR PROMOTING THE IN VITRO CULTURE OF (HIGHLY PIGMENTED) MELANOCYTES” (L'OREAL, priority 2004, published 2010).

Assays:
Type in all cases: cell-based, human
[1] = test system: melanocytes of phototype VI (African); test: Determination of the non-cytotoxic concentration of PTU (cell adherence, observed under a microscope); conditions: for adherent cells (viability): primary culture without PTU 80%
Description: a) Preparation of a Primary Culture of […] Melanocytes: The melanocytes were obtained from a foreskin of a child according to the following protocol: the skin is cut into fragments of 6 mm and incubated at +4° C. overnight in the presence of 0.25% trypsin. The epidermis is then separated from the dermis in foetal calf serum. The pieces of dermis are scraped in order to recover the basal cells and the melanocytes. The epidermal fragments are then vortexed and the cells are then centrifuged at […] for 5 min. These cells (mixture of melanocytes and keratinocytes) are counted and seeded at a density of 8 to 15×10^6 cells per 75 cm^2 flask, in 18 to 20 ml of M2 medium (Promocell). The melanocytes are then purified according to the following protocol: the culture medium is changed 3 times a week and when the cells are confluent, the flasks are emptied and rinsed once with PBS-Ca^2+Mg^2+. 3 ml of trypsin-EDTA are then added per flask and the flasks are incubated at ambient temperature for 3-4 min: the melanocytes detach whereas the keratinocytes remain attached to the flask. An equivalent volume of M2 medium is added and the detached cells are counted and seeded at a density of 10^6 cells per 75 cm^2 flask, in 18 to 20 ml of M2 medium (Promocell). A primary culture of […] human melanocytes is thus obtained. The trypsinization is repeated when the melanocytes reach confluency (passage 1 et seq.). The melanocytes in the primary culture are 80% viable, i.e., 80% of the melanocytes adhere to the flask. b) Determination of the Non-Cytotoxic Concentration of PTU: Reversible Effect: Part of the primary culture of melanocytes is treated with PTU (Sigma) at the concentrations of 5 μM, 10 μM and 50 μM, at passage 2/3 or preferably from the first passage. The cytotoxicity of the effect of the PTU is evaluated by observing the cells under a microscope.

[2] = test system: melanocytes of phototype VI (African); test: Pigmentation (luminance L*) and melanogenesis inhibition in melanocyte cultures
Description: The pigmentation of the melanocytes of phototype VI (African), treated with 10 μM PTU or not treated, is measured by the value L* (luminance) of the cultures given by the spectrocolorimeter (FIG. 1). […] Melanin synthesis is decreased during treatment and becomes normal again in the absence of treatment. The IC50 of PTU (i.e., the concentration of PTU for which 50% inhibition of melanogenesis is observed compared with the control on cultures of melanocytes of phototype VI (African), is evaluated from 50 μM to 100 μM.

[3] = test system: melanocytes of phototype VI (African); test: Effect of PTU on proliferation of melanocytes (amount of cells obtained per passage)
[4] = test system: melanocytes of phototype VI (African); test: Viability of melanocytes after freezing, thawing and re-culturing; conditions: PTU 10 μM before freezing; non-treated 5%
Description: They are then centrifuged and the pellet is resuspended in foetal calf serum+10% DMSO at a concentration of 10^6 cells/ml. The cells are frozen in cryotubes at −80° C. After 24 h, the tubes are transferred into liquid nitrogen at −196° C. For the thawing, the tubes are placed in a water bath at 37° C. and, after rapid thawing, 5 ml of M2 medium are added. The cells are centrifuged at 190 g for 5 min, the pellet is resuspended in M2 medium, and the cells are seeded into a flask and re-cultured under the conditions described in a).

[5] = test system: melanocytes of phototype VI (African) in reconstructed epidermis; test: Functionality of PTU-multiplied melanocytes in reconstructed epidermis (DOPA reaction, Fontana-Masson staining); conditions: melanocytes multiplied beforehand with 5 μM or 10 μM PTU, treatment stopped
Description: The support is rinsed in the culture medium and then possibly coated with collagen type IV, fibronectin or laminin, for example. After contact at +4° C. overnight, the keratinocytes and the melanocytes of phototype VI (African) multiplied beforehand in the presence of 5 μM or 10 μM PTU, as described in Example 1, are then seeded onto said support. The culture can then be maintained immersed in a medium for keratinocytes in the presence of growth factor. After an incubation time of 3 to 5 days, the skin equivalent of phototype VI (African) undergoing formation is maintained at the air/liquid interface, for example by deposition onto a metal screen or removal of the culture medium present at the surface of an insert. The liquid then preferentially consists of the same nutritive medium as the previous one, but in which the growth factors have been reduced. The incubation then continues until a skin equivalent of phototype VI (African) is obtained. Thus, the incubation continues for a period of from 5 to 30 days, preferentially from 7 to 10 days. The reconstructed skin model of phototype VI (African) thus produced comprises two entities, the support, dermal equivalent, and the epidermal equivalent, which can be physically separated from one another. […] This enzyme is responsible for the oxidation of tyrosine to […] (DOPA) and then for the oxidation of DOPA to DOPA-quinone. […]

[6] = test system: epidermis reconstructed from melanocytes of phototype VI (African); test: Depigmenting activity on reconstructed epidermis (luminance L* by colorimeter); conditions: 100 μM, topical, 3 applications for 5 days; FIG. 3
Description: The epidermis reconstructed from melanocytes of phototype VI (African), prepared under the conditions of Example 2, is used to screen the depigmenting activity of active agents.
The test products—arbutin at 100 μM and vitamin C phosphate at 280 μM—are applied topically to said reconstructed epidermis: 3 applications (3 μM/sample) for 5 days from the 5th day of immersion.
Vitamin C phosphate at 280 μM is also applied systemically, i.e., in the culture medium, throughout the duration of the epidermal reconstruction.
The control is the measurement of luminance of the reconstructed epidermis in the absence of test product.
On epidermis reconstructed on BPER (Episkin®), since the dermal support is translucent, it cannot be evaluated directly on the samples. The latter are therefore de-epidermalized and then digested with a solution of proteinase K. The lysates obtained are filtered on DEAE cellulose, which retains the melanin. The luminance is then measured on the filter.
The luminance L*, or lightness, of the sample is measured using a colorimeter. The darker a sample is, the weaker its luminance.

[7] = PTU 5 μM or 10 μM added at passage 2/3, non-treated cells multiply 2-fold
[8] = PTU 10 μM added at passage 4/5, non-treated control factor of 2

SMILES	adherent cells (viability) ([1]; PTU 5 μM) [%]	adherent cells (viability) ([1]; PTU 10 μM) [%]	cytotoxicity on melanocytes from African individuals ([1]; PTU 50 μM, most of the cells detach)	IC50 ([2]; Homo sapiens, Melanocyte, cultures of melanocytes of phototype VI (African), read-out: IC50, concentration for 50% inhibition of melanogenesis compared with the control) [µM]	amount of pigment in the melanocytes (luminance L*) ([2]; PTU 10 μM, effect reversible when treatment is stopped, FIG. 1)	amount of pigment excreted by the melanocytes into the medium ([2]; after PTU treatment)	multiplication of melanocytes ([3]; PTU 5 μM instead of 10 μM, treated from the first passage)	factor of stimulation of multiplication at passage 8 [3, 7]	factor of stimulation of multiplication at passage 9 [3, 7]	multiplication factor of treated cells at passage 8 [3, 8]	multiplication factor of treated cells at passage 9 [3, 8]	percentage viability during multiplication ([3]; PTU 10 μM, non-treated control 80%) [%]	viable melanocytes after freezing, thawing and re-culturing [4] [%]	DOPA assay (tyrosinase DOPA-oxidase activity) of treated melanocytes [5]	integration of treated melanocytes into the reconstructed epidermis [5]	increase in luminance versus control [6]
S=C(Nc1ccccc1)Nc1nccs1 [PTU, 1-phenyl-3-(2-thiazolyl)-2-thiourea]	95	95	cytotoxic	50 to 100	decreases the amount of pigment in the melanocytes	reduced	results of the same order of magnitude	5	15	5	15	95	80	reactive	integrate into the reconstructed epidermis	–
OC[C@H]1O[C@@H](Oc2ccc(O)cc2)[C@H](O)[C@@H](O)[C@@H]1O [arbutin]	–	–	–	–	–	–	–	–	–	–	–	–	–	–	–	1.8 points of L*
